# Assay results published in PubChem BioAssay AID220 (DTP/NCI, 2004).
# “And” between values parts separate entries of the source, which are not always exact repeats. Equal entries are not always repeated. Results filed as inconclusive are left out.
# Test system: CD8F1 mice, subcutaneous mammary adenocarcinoma, T/C%
# Experiment: NCI In Vivo Anticancer Drug Screen. Data for tumor model Mammary Adenocarcinoma CD8F1 (subcutaneous) in CD8F1
# Details: higher = larger tumour
# How it was run: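 Transplantable tumors were established in mice, animals were dosed with compound or vehicle, and survival or tumor size was then measured in both groups. The treated result was divided by the control result.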
smiles,measurement,setting,value
NC(=O)/C=C/C(=O)c1c(Cl)cccc1Cl,T/C,"endpoint: median tumor weight change, dose: 1.5 mg/kg/injection, schedule: Q01DX001 (ip), vehicle: saline with Tween-80",110 % of control
same,T/C,"endpoint: median tumor weight change, dose: 3.0 mg/kg/injection, schedule: Q01DX001 (ip), vehicle: saline with Tween-80",85 % of control
same,T/C,"endpoint: median tumor weight change, dose: 6.0 mg/kg/injection, schedule: Q01DX001 (ip), vehicle: saline with Tween-80",100 % of control
same,T/C,"endpoint: median tumor weight change, dose: 12.0 mg/kg/injection, schedule: Q01DX001 (ip), vehicle: saline with Tween-80",90 % of control
same,T/C,"endpoint: median tumor weight change, dose: 12.5 mg/kg/injection, schedule: Q01DX001 (ip), vehicle: saline with Tween-80",71 % of control
same,T/C,"endpoint: median tumor weight change, dose: 50.0 mg/kg/injection, schedule: Q01DX001 (ip), vehicle: saline with Tween-80",104 % of control
same,T/C,"endpoint: median tumor weight change, dose: 100.0 mg/kg/injection, schedule: Q01DX001 (ip), vehicle: saline with Tween-80",55 % of control
OC(CCl)CN1CC[N+]2(CC1)CC[N+]1(CCN(CC(O)CCl)CC1)CC2 (stereo unspecified),T/C,"endpoint: median tumor weight (est.), dose: 12.5 mg/kg/injection, schedule: Q07DX005 (ip), vehicle: saline",57 % of control
same,T/C,"endpoint: median tumor weight (est.), dose: 25.0 mg/kg/injection, schedule: Q07DX005 (ip), vehicle: saline",67 % of control
same,T/C,"endpoint: median tumor weight (est.), dose: 50.0 mg/kg/injection, schedule: Q07DX005 (ip), vehicle: saline",80 % of control
same,T/C,"endpoint: median tumor weight (est.), dose: 100.0 mg/kg/injection, schedule: Q07DX005 (ip), vehicle: saline",43 % of control
same,T/C,"endpoint: median tumor weight (est.), dose: 200.0 mg/kg/injection, schedule: Q07DX005 (ip), vehicle: saline",36 % of control
same,T/C,"endpoint: median tumor weight (est.), dose: 400.0 mg/kg/injection, schedule: Q07DX005 (ip), vehicle: saline",11 % of control
same,T/C,"endpoint: median tumor weight change, dose: 50.0 mg/kg/injection, schedule: Q01DX001 (ip), vehicle: saline",101 % of control
same,T/C,"endpoint: median tumor weight change, dose: 100.0 mg/kg/injection, schedule: Q01DX001 (ip), vehicle: saline",111 % of control
same,T/C,"endpoint: median tumor weight change, dose: 200.0 mg/kg/injection, schedule: Q01DX001 (ip), vehicle: saline",96 % of control and 119 % of control
same,T/C,"endpoint: median tumor weight change, dose: 800.0 mg/kg/injection, schedule: Q01DX001 (ip), vehicle: saline",49 % of control and 56 % of control
Brc1ccc(C[N+]23CN4CN(CN(C4)C2)C3)cc1,T/C,"endpoint: median tumor weight (est.), dose: 25.0 mg/kg/injection, schedule: Q07DX005 (ip), vehicle: saline with Tween-80",90 % of control
same,T/C,"endpoint: median tumor weight (est.), dose: 50.0 mg/kg/injection, schedule: Q07DX005 (ip), vehicle: saline with Tween-80",96 % of control
same,T/C,"endpoint: median tumor weight (est.), dose: 100.0 mg/kg/injection, schedule: Q07DX005 (ip), vehicle: saline with Tween-80",180 % of control
Nc1nc([Se])c2ncn(C3OC(CO)C(O)C3O)c2n1 (stereo unspecified),T/C,"endpoint: median tumor weight (est.), dose: 2.0 mg/kg/injection, schedule: Q07DX005 (ip), vehicle: saline",92 % of control
same,T/C,"endpoint: median tumor weight (est.), dose: 4.0 mg/kg/injection, schedule: Q07DX005 (ip), vehicle: saline",54 % of control
same,T/C,"endpoint: median tumor weight (est.), dose: 8.0 mg/kg/injection, schedule: Q07DX005 (ip), vehicle: saline",68 % of control
same,T/C,"endpoint: median tumor weight (est.), dose: 8.0 mg/kg/injection, schedule: Q07DX005 (ip), vehicle: suspension in saline",24 % of control
same,T/C,"endpoint: median tumor weight (est.), dose: 16.0 mg/kg/injection, schedule: Q07DX005 (ip), vehicle: saline",70 % of control
same,T/C,"endpoint: median tumor weight (est.), dose: 16.0 mg/kg/injection, schedule: Q07DX005 (ip), vehicle: suspension in saline",20 % of control
same,T/C,"endpoint: median tumor weight (est.), dose: 32.0 mg/kg/injection, schedule: Q07DX005 (ip), vehicle: saline",30 % of control
same,T/C,"endpoint: median tumor weight (est.), dose: 32.0 mg/kg/injection, schedule: Q07DX005 (ip), vehicle: suspension in saline",51 % of control
same,T/C,"endpoint: median tumor weight (est.), dose: 64.0 mg/kg/injection, schedule: Q07DX005 (ip), vehicle: saline",27 % of control
same,T/C,"endpoint: median tumor weight (est.), dose: 64.0 mg/kg/injection, schedule: Q07DX005 (ip), vehicle: suspension in saline",12 % of control
NC(=O)c1ncn(C2OC(CO)C(O)C2O)c1O (stereo unspecified),T/C,"endpoint: median tumor weight (est.), dose: 50.0 mg/kg/injection, schedule: Q07DX005 (ip), vehicle: Klucel (hydroxypropylcellulose) (HPC)",85 % of control
same,T/C,"endpoint: median tumor weight (est.), dose: 100.0 mg/kg/injection, schedule: Q07DX005 (ip), vehicle: Klucel (hydroxypropylcellulose) (HPC)",105 % of control
same,T/C,"endpoint: median tumor weight (est.), dose: 200.0 mg/kg/injection, schedule: Q07DX005 (ip), vehicle: Klucel (hydroxypropylcellulose) (HPC)",72 % of control
same,T/C,"endpoint: median tumor weight (est.), dose: 400.0 mg/kg/injection, schedule: Q07DX005 (ip), vehicle: Klucel (hydroxypropylcellulose) (HPC)",83 % of control
C[CH2][Pb]([CH2]C)([CH2]C)[O]C(=O)COc1ccccc1,T/C,"endpoint: mean tumor weight, dose: 0.75 mg/kg/injection, schedule: Q01DX009 (ip), vehicle: saline",112 % of control
same,T/C,"endpoint: mean tumor weight, dose: 0.75 mg/kg/injection, schedule: Q07DX009 (ip), vehicle: saline",398 % of control
same,T/C,"endpoint: mean tumor weight, dose: 1.5 mg/kg/injection, schedule: Q01DX009 (ip), vehicle: saline",57 % of control
same,T/C,"endpoint: mean tumor weight, dose: 1.5 mg/kg/injection, schedule: Q07DX009 (ip), vehicle: saline",192 % of control
same,T/C,"endpoint: mean tumor weight, dose: 3.0 mg/kg/injection, schedule: Q01DX009 (ip), vehicle: saline",73 % of control
same,T/C,"endpoint: mean tumor weight, dose: 3.0 mg/kg/injection, schedule: Q07DX009 (ip), vehicle: saline",172 % of control
same,T/C,"endpoint: mean tumor weight, dose: 6.0 mg/kg/injection, schedule: Q07DX009 (ip), vehicle: saline",165 % of control
